# According to ChEMBL document CHEMBL5523691, “SAR study of N'-(Salicylidene)heteroarenecarbohydrazides as promising antifungal agents” (Bioorg Med Chem, 2024):
# The source made the active and inactive calls. The rule behind the calls is not given here.
# Tests used:
# [1] = tested on: Cryptococcus neoformans; experiment: Antifungal activity against wild type Cryptococcus neoformans H99 assessed as inhibition of fungal growth incubated for 24 to 72 hrs by optical density based analysis; assay type: functional; conditions: time 24-72 hrs
# [2] = tested on: Cryptococcus neoformans; experiment: Fungistatic activity against wild type Cryptococcus neoformans H99 assessed as inhibition of fungal growth incubated for 12 to 48 hrs by time-kill assay; assay type: functional, organism-based; conditions: time 12-48 hrs
# [3] = Selectivity index, ratio of LD50 for human A549 cells to MIC80 for Cryptococcus neoformans H99; assay type: toxicity; conditions: read-out: Selectivity Index
# [4] = Cytotoxicity against human A549 cells assessed as cell killing measured after 24 to 48 hrs by MTT assay; assay type: toxicity, cell-based; conditions: time 24-48 hrs, read-out: LD50 (the source's name)
Structure (SMILES),MIC80 [1],other results
O=C(N/N=C/c1c(O)ccc2ccccc12)c1cc[nH]c1,> 16 µg/mL,–
O=C(N/N=C/c1cc(Br)cc(Br)c1O)c1cc2cc(Br)ccc2o1,> 16 µg/mL,–
O=C(N/N=C/c1cc(Br)cc(Br)c1O)c1cc2ccccc2cn1,> 16 µg/mL,–
O=C(N/N=C/c1cc(Br)ccc1O)c1nc2cc(Br)ccc2[nH]1,> 16 µg/mL,–
O=C(N/N=C/c1cc(Br)cc(Br)c1O)c1cc[nH]n1,4 µg/mL,–
O=C(N/N=C/c1cc(Br)cc(Br)c1O)c1ncc(Br)cn1,0.25 µg/mL,Activity [2]: Active
O=C(N/N=C/c1cc(Br)ccc1O)c1cc(Br)c[nH]1,> 16 µg/mL,–
O=C(N/N=C/c1ccc(Br)cc1O)c1cc[nH]n1,2 µg/mL,–
O=C(N/N=C/c1ccc(Br)cc1O)c1cccs1,4 µg/mL,–
O=C(N/N=C/c1cc(Br)cc(Br)c1O)c1ccc(C(F)(F)F)o1,2 µg/mL,–
O=C(N/N=C/c1cc(Br)cc(Br)c1O)c1cc(Br)co1,0.06 µg/mL,selectivity ratio [3]: 267; CC50 [4]: 16 µg/mL; Activity [2]: Active
O=C(N/N=C/c1cc(Br)cc(Br)c1O)c1ccco1,8 µg/mL,–
O=C(N/N=C/c1cc(Br)ccc1O)c1csc2ccccc12,> 16 µg/mL,–
O=C(N/N=C/c1c(O)ccc2ccccc12)c1cc(Br)co1,> 16 µg/mL,–
O=C(N/N=C/c1c(O)ccc2ccccc12)c1ccco1,> 16 µg/mL,–
O=C(N/N=C/c1cc(Br)ccc1O)c1cc(Br)co1,0.25 µg/mL,selectivity ratio [3]: 64; CC50 [4]: 16 µg/mL; Activity [2]: Active
O=C(N/N=C/c1ccc(Br)cc1O)c1ccc[nH]1,2 µg/mL,–
O=C(N/N=C/c1cc(Br)cc(Br)c1O)c1ncc[nH]1,2 µg/mL,–
Cc1ccc2c(C)c(C(=O)N/N=C/c3cc(Br)ccc3O)oc2c1,> 16 µg/mL,–
O=C(N/N=C/c1c(O)ccc2ccccc12)c1ncc(Br)cn1,2 µg/mL,–
O=C(N/N=C/c1cc(Br)ccc1O)c1cc2cc(Br)ccc2cn1,> 16 µg/mL,–
O=C(N/N=C/c1c(O)ccc2ccccc12)c1cc(Br)c[nH]1,> 16 µg/mL,–
O=C(N/N=C/c1cc(Br)ccc1O)c1ccco1,2 µg/mL,–

Structure (SMILES),MIC80 [1],other results
O=C(N/N=C/c1cc(Br)ccc1O)c1cc2ccccc2cn1,> 16 µg/mL,–
O=C(N/N=C/c1ccc(Br)cc1O)c1ccco1,2 µg/mL,–
O=C(N/N=C/c1ccc(Br)cc1O)c1cc[nH]c1,4 µg/mL,–
O=C(N/N=C/c1cc(Br)ccc1O)c1cccs1,8 µg/mL,–
O=C(N/N=C/c1cc(Br)cc(Br)c1O)c1cccs1,4 µg/mL,–
O=C(N/N=C/c1cc(Br)ccc1O)c1cc[nH]c1,4 µg/mL,–
O=C(N/N=C/c1cc(Br)cc(Br)c1O)c1cc[nH]c1,2 µg/mL,–
O=C(N/N=C/c1cc(Br)cc(Br)c1O)c1cc2cc(Br)ccc2cn1,> 16 µg/mL,–
O=C(N/N=C/c1cc(Br)cc(Br)c1O)c1cc(Br)c[nH]1,4 µg/mL,–
O=C(N/N=C/c1c(O)ccc2ccccc12)c1cc(Br)c(Br)o1,0.12 µg/mL,selectivity ratio [3]: 267; CC50 [4]: 32 µg/mL; Activity [2]: Active
O=C(N/N=C/c1cc(Br)cc(Br)c1O)c1cncc(Br)c1,> 16 µg/mL,–
O=C(N/N=C/c1cc(Br)ccc1O)c1cc2cc(Br)ccc2o1,> 16 µg/mL,–
Cc1ccc2c(C)c(C(=O)N/N=C/c3cc(Br)cc(Br)c3O)oc2c1,> 16 µg/mL,–
O=C(N/N=C/c1c(O)ccc2ccccc12)c1cc(Br)c(Br)s1,16 µg/mL,–
O=C(N/N=C/c1ccc(Br)cc1O)c1cc(Br)c[nH]1,8 µg/mL,–
O=C(N/N=C/c1cc(Br)ccc1O)c1ccc(C(F)(F)F)o1,2 µg/mL,–
O=C(N/N=C/c1cc(Br)cc(Br)c1O)c1ccc[nH]1,2 µg/mL,–
O=C(N/N=C/c1cc(Br)ccc1O)c1ncc(Br)cn1,> 16 µg/mL,–
O=C(N/N=C/c1cc(Br)ccc1O)c1cc[nH]n1,4 µg/mL,–
O=C(N/N=C/c1cc(Br)ccc1O)c1ccc[nH]1,16 µg/mL,–
O=C(N/N=C/c1c(O)ccc2ccccc12)c1cc[nH]n1,4 µg/mL,–
O=C(N/N=C/c1cc(Br)cc(Br)c1O)c1csc2ccccc12,> 16 µg/mL,–
O=C(N/N=C/c1ccc(Br)cc1O)c1ncc(Br)cn1,> 16 µg/mL,–
